Source: patent US20030059771A1, “Compositions and methods related to the Rig tumor suppressor gene and protein” (THE UNITED STATES OF AMERICA, Department of Health and …, priority 2001, published 2003)

B1: FLAG-Rig: FLAG-tagged recombinant Rig protein expressed from pCDNA-FLAG (protein)
chain: MPEQSNDYRVVVFGAGGVGKSSLVLRFVKGTFRDTYIPTIEDTYRQVISCDKSVCTLQITDTTGSHQFPAMQRLSISKGHAFILVFSVTSKQSLEELGPIYKLIVQIKGSVEDIPVMLVGNKCDETQREVDTREAQAVAQEWKCAFMETSAKMNYNVKELFQELLTLETRRNMSLNIDGKRSGKQKRTDRVKGKCTLM
modifications: left off: small tags and cut ends

What was measured:
prenylation of GST-Rig = test: In vitro prenylation assay with farnesyl transferase inhibitor (mevalonate prenylation in rabbit reticulocyte lysate); assay type: biochemical, human
Source text: In this Example, experiments performed to determine the in vitro prenylation characteristics of Rig, Ras and Rap are described. Radiolabelled farnesyl pyrophosphate, radiolabelled geranylgeranyl pyrophosphate or radiolabelled mevalonate were alternatively used as substrates in these assays, to determine the prenylation specificity of each GTPase protein. In addition, the ability of a farnesyl transferase inhibitor (FTI; namely, FTI-277, Calbiochem, Catalog No. 344555) to inhibit the prenylation of Rig, Ras and Rap was examined. Purified GST-Rig, GST-H-Ras (G12V) and GST-Rap fusion proteins were used in the in vitro prenylation experiments. The H-Ras(G12V) protein was included in the prenylation assays to serve as a positive control (Clark et al., Proc. Natl. Acad. Sci. USA 90:4887-4891 [1993]). […]
(§1) Each in vitro prenylation reaction contained approximately 1-2 μg alternatively of GST, GST-Rig, GST-H-Ras(G12V) or GST-Rap. […] The gel was soaked in fixing buffer (water with 10% methanol and 10% acetic acid), soaked in autofluor (National Diagnostics, Catalog No. LS315) and analyzed by autoradiography.
(§2) In a second experiment, the sensitivity of mevalonate prenylation of GST-Rig, GST-Ras and GST-Rap, to increasing amounts of farnesyl transferase inhibitor (FTI-277; Calbiochem) was assessed. […] The gel was fixed, soaked in autofluor and analyzed by autoradiography.

prenylation of GST-Rap = test: as above; assay type: biochemical; settings: 1-100 nM FTI concentration range
Source text: (§3) In this Example, experiments performed to determine the in vitro prenylation characteristics of Rig, Ras and Rap are described. Radiolabelled farnesyl pyrophosphate, radiolabelled geranylgeranyl pyrophosphate or radiolabelled mevalonate were alternatively used as substrates in these assays, to determine the prenylation specificity of each GTPase protein. In addition, the ability of a farnesyl transferase inhibitor (FTI; namely, FTI-277, Calbiochem, Catalog No. 344555) to inhibit the prenylation of Rig, Ras and Rap was examined. Purified GST-Rig, GST-H-Ras (G12V) and GST-Rap fusion proteins were used in the in vitro prenylation experiments. The H-Ras(G12V) protein was included in the prenylation assays to serve as a positive control (Clark et al., Proc. Natl. Acad. Sci. USA 90:4887-4891 [1993]).
(§4) The GST-Rig fusion construct was made by cloning a restriction fragment containing the Rig ORF in frame into the BamHI/EcoRI sites of pGEX-2T (Pharmacia). The vector encoding GST-H-Ras(G12V) was made by subcloning an H-Ras (G12V) BamHI/EcoRI PCR product into the BamHI/EcoRI sites of the pGEX-2T vector. The product was confirmed by sequencing. The GST-Rap fusion construct was produced as described by Clark et al. (Clark et al., J. Biol. Chem., 272:10608-10615 [1997]).
(§5) The resulting plasmids were transformed into competent XL1-Blue Escherichia coli (Stratagene), and the GST-fusion proteins produced by the bacteria were isolated by standard techniques, according to the manufacturer's protocol (Pharmacia), with minor modification (inclusion of 100 μM GTP and the omission of EDTA from the protein collection/purification buffers). Briefly, bacteria were grown to an OD600 of 0.1 in LB broth. At that time, […] isopropyl-β-thiogalactopyranoside (IPTG) was added to the culture. Four hours following IPTG induction, the bacteria were pelleted at 3,000 RPM for 20 minutes, and resuspended in 5 mL lysis buffer (phosphate buffered saline [PBS] containing 100 μM GTP, 0.1% Triton X−100, leupeptin and aprotinin). The lysate was sonicated, then clarified by centrifugation at 10,000 RPM for 30 minutes. The resulting lysate was used as starting material for glutathione-conjugated agarose bead purification (Sigma) using standard techniques. […]
as §1, §2

[1] = system: prenylation of GST-Ras(G12V); test: as above; assay type: biochemical
Source text: as §3, §4, §5, §1, §2

Raf-1 = biological target: T1, Raf-1 (Homo sapiens, UniProt P04049); test: In vivo Rig/Raf-1 co-immunoprecipitation in HEK-293T cells; assay type: binding; settings: HEK-293T cells co-transfected with HA-Raf-1
T1 construct: HA-RAF-1 fusion protein expression vector was produced by generating a full-length BamHI-compatible PCR fragment from a Raf-1 template; expressed in transfected cells; host or cells: HEK-293T
Source text: In this Example, experiments to assess the ability of Rig and Raf-1 to interact in vivo are described. These experiments (results shown in FIG. 9) used a standard in vivo co-transfection/co-immunoprecipitation protocol, where cultured mammalian cells were cotransfected with FLAG-tagged and/or hemagglutinin (HA)-tagged mammalian expression vector constructs, followed by immunoprecipitation with an anti-Raf-1 antibody and Western immunoblotting using either anti-FLAG or anti-HA primary detection antibodies. The assay was conducted using HEK-293T cells, a transformed human embryonal kidney cell line.
Briefly, HA-RAF-1 fusion protein expression vector was produced by generating a full-length BamHI-compatible PCR fragment from a Raf-1 template (Fabian et al., Proc. Natl. Acad.Sci. USA 91:5982-5986 [1994]), then cloned into the BamHI site of pCGN, which also encodes the HA epitope (Fiordalisi et al, Methods Enzymol., 332:3-36 [2001]). The construct was confirmed by sequencing.
A pCDNA3.1 (FLAG) expression vector was produced by inserting the FLAG epitope in-frame upstream of the BamHI restriction site of the multiple cloning region of pCDNA3.1 (Invitrogen). […]
Following transfection, the cells were cultured in DMEM containing 1% FBS for 48 hours. […] Membranes were then incubated in enhanced chemiluminescent substrate (ECL; Amersham) and the signal was detected on X-ray film.

[2] = FTI 1-100 nM, [3H]-mevalonate, one hour at 30 °C

| Molecule | farnesylation of GST-Rig at 100 nM FTI (prenylation of GST-Rig; 100 nM FTI concentration) | sensitivity of mevalonate prenylation (radiolabelling) of GST-Rig to FTI (prenylation of GST-Rig; [2]) | sensitivity of GST-Rap farnesylation by mevalonate to FTI (prenylation of GST-Rap) | farnesylation of GST-Ras at 100 nM FTI ([1]; 100 nM FTI concentration) | sensitivity of mevalonate prenylation (radiolabelling) of GST-Ras to FTI [1, 2] | sensitivity of GST-Ras prenylation relative to GST-Rig ([1]; comparison of the two proteins, FTI 1-100 nM) | co-precipitation with Raf-1 (anti-Raf-1 immunoprecipitation) (Raf-1) |
| --- | --- | --- | --- | --- | --- | --- | --- |
| COC(=O)[C@H](CCSC)NC(=O)c1ccc(NC[C@@H](N)CS)cc1-c1ccccc1 [FTI-277] | completely abolished | sensitive | did not show sensitivity | completely abolished | sensitive | greater sensitivity |  |
| B1 |  |  |  |  |  |  | coprecipitated |
